# Columns and labels:
# [1] = system: E. coli ATCC 25922; assay: Checkerboard synergy with erythromycin; format: cell-based, Escherichia coli; details: E. coli ATCC 25922
# Method: The combined effect of compound 1 and CTX for E. coli SA/2, VAN for E. faecalis B3/101, COL for E. coli 2252, erythromycin for E. coli ATCC 25922, and OXA for S. aureus 66/1 was evaluated by the checkerboard method. […] The interaction between compound 1 and erythromycin was assessed for E. coli ATCC 25922. Gram-negative bacteria are intrinsically resistant to erythromycin, a macrolide that inhibits protein synthesis, and cannot penetrate the outer membrane of Gram-negative bacteria, which is impermeable to hydrophobic antibiotics. Ascertain ceragenins have been previously described to be able to enhance the efficacy of such antibiotics, this possibility was investigated for compound 1 and a FICI of 0.6 was obtained.
# [2] = system: C. albicans ATCC 10231; assay: Ergosterol binding assay; format: cell-based, Candida albicans; details: 400 μg/mL ergosterol
# Method: Ceragenins have been described to interact with the lipophilic environment of microbial membranes and ergosterol is the major sterol component of fungal plasma membrane, and the target of several antifungals. As such, in order to evaluate the ability of compound 1 to bind to membrane ergosterol of C. albicans ATCC 10231, MICs were determined in the absence and presence of exogenous ergosterol ([FIG. 10]). If the tested compound has the ability to perturb membrane integrity by binding to ergosterol, is expected that, in the presence of exogenous ergosterol, the compound binds to it, decreasing the amount of compound available to bind to membrane ergosterol, therefore increasing the MIC. Amphotericin B was used as a positive control for this assay and MICs obtained were 8 times higher in the presence of 400 μg/mL of exogenous ergosterol than in its absence (2 to 16 μg/mL, data not shown). […] The ability of compound 1 to bind to membrane ergosterol of C. albicans ATCC 10231, was evaluated by the ergosterol binding assay, as previously described. Briefly, MICs of compound 1 were determined by broth microdilution, as described above, in the absence and presence of ergosterol (Sigma-Aldrich, St. Louis, MO, USA) at a final concentration of 400 μg/mL. Ergosterol was prepared immediately before being added to the plates, by maceration and dissolution in DMSO. The formed emulsion was then homogenized, heated to increase solubility, and diluted in RPMI. Amphotericin B was used as positive control. Plates were incubated at 35° C. for 48 h and MICs were determined as described above. At least two independent assays were performed.
# [3] = system: C. albicans ATCC 10231; assay: Biofilm formation (crystal violet); format: cell-based, Candida albicans; details: 2×MIC to ¼×MIC (128-16 μg/mL), 48 h
# Method: The effect of compound 1 on biofilm formation of C. albicans ATCC 10231 was evaluated through quantification of total biomass by crystal violet staining. […] A control with appropriate concentration of DMSO, as well as a negative control (RPMI alone), were included. Sterile 96-well flat-bottomed untreated polystyrene microtiter plates were used. After a 48 h incubation at 35° C., the biofilms were stained with 1% (v/v) crystal violet for 5 min. The stain was solubilized with 33% (v/v) acetic acid and the biofilm biomass was quantified by measuring the absorbance of each sample at 570 nm in a microplate reader (Thermo Scientific Multiskan® EX, Thermo Fisher Scientific, Waltham, MA, USA). The background absorbance (RPMI without inoculum) was subtracted, and the data are presented as percentage of control. Three independent assays were performed in triplicate for each experimental condition.
# [4] = system: E. faecalis ATCC 29212; assay: Bacterial biofilm formation inhibition (crystal violet); format: cell-based, Enterococcus faecalis
# Method: In an embodiment, the antibiofilm activity of compound 1 was performed as follows. Given its bactericidal effect, the impact of compound 1 on the biofilm formation of reference strains was studied.
# The effect of compound 1 on bacterial biofilm formation was evaluated through quantification of total biomass, using the crystal violet method, as previously described ([FIG. 6]). […] A control with an appropriate concentration of DMSO, as well as a negative control (TSB alone) was included. Sterile 96-well flat-bottomed untreated polystyrene microtiter plates were used. After a 24 h incubation at 37 degrees C., the biofilms were heat-fixed for 1 h at 60 degrees C. and stained with 0.5% (v/v) crystal violet (Quimica Clinica Aplicada, Amposta, Spain) for 5 min. The stain was resolubilized with 33% (v/v) acetic acid (Acetic acid 100%, AppliChem, Darmstadt, Germany) and the biofilm biomass was quantified by measuring the absorbance of each sample at 570 nm in a microplate reader (Thermo Scientific Multiskan® EX, Thermo Fisher Scientific, Waltham, MA, USA). The background absorbance (TSB or TSB+1% glucose without inoculum) was subtracted from the absorbance of each sample and the data are presented as a percentage of control. Three independent assays were performed for reference strains, with triplicates for each experimental condition.
# [5] = system: E. coli ATCC 25922; assay: Enzymatic/metabolic activity, MTT assay; format: cell-based, Escherichia coli
# Method: To determine whether compound 1 could also affect enzymatic activity, 2-(4,5-dimethyl-2-thiazolyl)-3,5-diphenyl-2H-tetrazolium bromide (MTT) assay was performed. This assay can also be used as an indirect measure of cellular viability, as tetrazolium salts are reduced to purple formazan by metabolically active cells. E. coli ATCC 25922 cells were treated with compound 1 and COL and AMP were used as controls, as described above. Measurements were made at 0, 1, and 18 h.
# Enzymatic activity was evaluated by the MTT assay, as previously described, with some modifications. Cell suspensions of E. coli ATCC 25922 were prepared as described above, as well as test conditions and controls. At each time point (0, 1, and 18 h), 500 μL aliquots were collected, centrifuged at 3500 rpm for 10 min, the supernatant was removed, and 300 μL of MTT solution (0.5 mg/mL in CAMHB, at 36 degrees C.) (Thiazolyl Blue Tetrazolium Bromide, Alfa Aesar, Ward Hill, MA, USA) were added. After a 30 min incubation at 36° C., the insoluble formazan product resulting from the conversion of MTT by metabolically active cells was solubilized with 300 μL of DMSO. 100 μL of each sample were transferred in duplicate to the wells of a microtiter plate and the extent of the reduction of MTT to formazan was quantified by measuring the absorbance at 570 nm (Thermo Scientific Multiskan® EX, Thermo Fisher Scientific, Waltham, MA, USA). Three independent assays were performed in duplicate, and results are expressed as a percentage of untreated control.
smiles,measurement,setting,value
"C[C@H](CCC(=O)NCCN)[C@H]1CC[C@H]2[C@@H]3CC[C@@H]4C[C@H](O)CC[C@]4(C)[C@H]3C[C@H](O)[C@]12C [Compound 1, (R)—N-(2-aminoethyl)-4-((3R,5R,8R,9S,10S,12S,13R,14S,17R)-3,12-dihydroxy-10,13-dimethylhexadecahydro-1H-cyclopenta[a]phenanthren-17-yl) pentanamida]",combined effect with erythromycin (in words),[1]; checkerboard,No synergistic interactions
same,fractional inhibitory concentration index (FICI),[1]; with erythromycin,0.6
same,effect of exogenous ergosterol on MICs (in words),[2],unaffected
same,biofilm formation (in words),[3],significant inhibition of biofilm formation
same,biofilm formation (in words),"[4]; 2×MIC and MIC, 24 h",significantly inhibited
same,minimal biofilm inhibitory concentration (MBIC),"[4]; 80% reduction of biofilm formation, E. faecalis ATCC 29212",< 4 µg/mL
same,metabolic activity (MTT) vs untreated control,"[5]; 32 μg/mL, after 1 and 18 h",decrease in enzymatic activity
same,metabolic activity (MTT) vs untreated control,"[5]; 64 μg/mL, 0, 1, 18 h",significantly reduced at all time points

# From patent US20250002450A1, “CATIONIC STEROID COMPOUNDS, METHOD OF OBTAINING THEREOF, FORMULATIONS COMPRISING THEREOF AND THEIR USES” (UNIVERSIDADE DO PORTO, priority 2021, published 2025)
